According to patent US10570121B2, “Substituted dihydroisoquinolinone compounds” (priority 2014, dated 2020):
Read-outs that look alike come from different tables or passages of the source.

Experiments:
Assay type in all cases: biochemical
[1] = biological target: T1, WT EZH2 (Homo sapiens (Human), UniProt Q15910); test: WT EZH2 nucleosome assay (10X SAM, high SAM conditions); settings: 15 uM SAM, Ki app from competitive inhibition fit
[2] = biological target: EZH2 Mutant Y641N (Homo sapiens (Human), UniProt Q15910, Y641N); test: EZH2 Mutant Y641N nucleosome assay; settings: PRC2 4-protein complex 6 nM, 1.5 μM SAM, HeLa oligonucleosomes
[3] = biological target: T1, WT EZH2; test: WT EZH2 nucleosome assay; settings: PRC2 4-protein complex 4 nM, 1.5 μM SAM, HeLa oligonucleosomes
Method: The genes for EZH2, EED, SUZ12, and RBBP4 proteins were cloned into pBacPAK9 vectors (Clontech). RBBP4 was FLAG tagged on the N-terminal end. The baculovirus expressions of these proteins were used to co-infect SF9 insect cells. Insect cell pellets were lysed in a buffer containing 25 mM Tris pH8.0, 300 mM NaCl, 0.5 mM TCEP, complete EDTA-free protease inhibitor (Roche), 0.1% NP-40. The supernatant from the lysate was incubated with FLAG® M2 antibody resin (Sigma). The resin was washed on the chromatography column and eluted with 0.2 mg/ml FLAG peptide. The elute was incubated with omnicleave nucleases (Epicentre Technologies) at 4° C. overnight, then concentrated and loaded onto a Superdex 200 (GE Healthcare) column. The Superdex 200 column was eluted with 25 mM Tris pH8.0, 150 mM NaCl, 0.5 mM TCEP. Fractions containing the PRC2 complex were pooled.
A. Compound preparation • 1.
B. Reagent preparation • 1. […] Dilute TCA to 20% in DI water
C. Enzyme reaction • 1. […] Some compounds were tested under high SAM conditions.
D. Data analysis • 1. IC50 values were determined by fitting the data to a 4-parameter IC50 equation using proprietary curve fitting software. • 2. For compounds tested under high SAM conditions, Ki^app values were obtained by fitting the dose response curve to a model for competitive inhibition using proprietary curve fitting software. Preparation of HeLa Oligonucleosomes: Reagents • Cell Pellet: 15 L HeLa S3 (Accelgen)+6 L HeLa S3 (in house) • Mnase (Worthington Biochemicals) Equipment • SW-28 Rotor • Dounce Homogenizer/B Pestle Buffers • Lysis: 20 mM Hepes pH 7.5, 0.25M Sucrose, 3 mM MgCl2, 0.5% Nonidet P-40, 0.5 mM TCEP, 1 Roche Protease Tablet • B: 20 mM Hepes pH7.5, 3 mM MgCl2, 0.5 mM EDTA, 0.5 mM TCEP, 1 Roche Protease Tablet • MSB: 20 mM Hepes pH7.5, 0.4 M NaCl, 1 mM EDTA, 5% v/v Glycerol, 0.5 mM TCEP, 0.2 mM PMSF • LSB: 20 mM Hepes pH7.5, 0.1M NaCl, 1 mM EDTA, 0.5 mM TCEP, 0.2 mM PMSF • NG: 20 mM Hepes pH7.5, 1 mM EDTA, 0.4 m NaCl, 0.2 mM PMSF, 0.5 mM TCEP • Storage: 20 mM Hepes pH7.5, 1 mM EDTA, 10% Glycerol, 0.2 mM PMSF, 0.5 mM TCEP Protocol

[4] = read-out: EZH2 Mutant Y641N Nucleosome assay IC50
[5] = read-out: WT EZH2 Nucleosome assay IC50
[6] = read-out: WT EZH2 Nucleosome assay (10X SAM) Ki

T1 sequence (Q15910 whole entry, looked up): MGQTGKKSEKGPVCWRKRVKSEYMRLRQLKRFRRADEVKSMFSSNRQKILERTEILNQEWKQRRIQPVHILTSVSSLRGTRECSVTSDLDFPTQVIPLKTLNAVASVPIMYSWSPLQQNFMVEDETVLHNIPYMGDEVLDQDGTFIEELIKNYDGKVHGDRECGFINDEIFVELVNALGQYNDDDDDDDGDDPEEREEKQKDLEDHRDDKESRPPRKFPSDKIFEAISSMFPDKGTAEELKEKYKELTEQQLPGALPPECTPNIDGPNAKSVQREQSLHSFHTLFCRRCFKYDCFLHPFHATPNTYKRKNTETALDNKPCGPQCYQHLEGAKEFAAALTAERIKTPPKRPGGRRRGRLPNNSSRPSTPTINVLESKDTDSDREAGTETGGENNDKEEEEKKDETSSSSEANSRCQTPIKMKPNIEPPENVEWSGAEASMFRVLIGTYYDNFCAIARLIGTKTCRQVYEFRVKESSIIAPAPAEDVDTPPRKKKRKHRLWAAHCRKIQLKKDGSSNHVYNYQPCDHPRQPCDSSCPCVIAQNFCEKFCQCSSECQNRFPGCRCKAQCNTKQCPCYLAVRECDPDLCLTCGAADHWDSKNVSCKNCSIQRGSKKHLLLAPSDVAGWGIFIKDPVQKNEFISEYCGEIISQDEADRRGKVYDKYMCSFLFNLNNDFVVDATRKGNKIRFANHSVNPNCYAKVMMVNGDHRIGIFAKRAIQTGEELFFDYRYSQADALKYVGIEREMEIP
T1 sequence (O75530 whole entry partner, looked up): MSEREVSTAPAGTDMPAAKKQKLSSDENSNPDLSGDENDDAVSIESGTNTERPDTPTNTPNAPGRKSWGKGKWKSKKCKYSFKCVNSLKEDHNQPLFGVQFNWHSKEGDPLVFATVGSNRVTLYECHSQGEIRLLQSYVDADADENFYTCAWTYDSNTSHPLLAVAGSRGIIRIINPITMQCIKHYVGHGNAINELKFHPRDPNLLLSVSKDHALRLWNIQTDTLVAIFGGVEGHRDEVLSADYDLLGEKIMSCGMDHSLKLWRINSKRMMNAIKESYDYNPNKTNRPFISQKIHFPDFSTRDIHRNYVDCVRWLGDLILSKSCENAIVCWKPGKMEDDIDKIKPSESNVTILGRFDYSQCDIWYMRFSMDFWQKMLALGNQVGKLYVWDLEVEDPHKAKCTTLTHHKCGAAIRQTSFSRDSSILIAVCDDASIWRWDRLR
T1 sequence (Q15022 whole entry partner, looked up): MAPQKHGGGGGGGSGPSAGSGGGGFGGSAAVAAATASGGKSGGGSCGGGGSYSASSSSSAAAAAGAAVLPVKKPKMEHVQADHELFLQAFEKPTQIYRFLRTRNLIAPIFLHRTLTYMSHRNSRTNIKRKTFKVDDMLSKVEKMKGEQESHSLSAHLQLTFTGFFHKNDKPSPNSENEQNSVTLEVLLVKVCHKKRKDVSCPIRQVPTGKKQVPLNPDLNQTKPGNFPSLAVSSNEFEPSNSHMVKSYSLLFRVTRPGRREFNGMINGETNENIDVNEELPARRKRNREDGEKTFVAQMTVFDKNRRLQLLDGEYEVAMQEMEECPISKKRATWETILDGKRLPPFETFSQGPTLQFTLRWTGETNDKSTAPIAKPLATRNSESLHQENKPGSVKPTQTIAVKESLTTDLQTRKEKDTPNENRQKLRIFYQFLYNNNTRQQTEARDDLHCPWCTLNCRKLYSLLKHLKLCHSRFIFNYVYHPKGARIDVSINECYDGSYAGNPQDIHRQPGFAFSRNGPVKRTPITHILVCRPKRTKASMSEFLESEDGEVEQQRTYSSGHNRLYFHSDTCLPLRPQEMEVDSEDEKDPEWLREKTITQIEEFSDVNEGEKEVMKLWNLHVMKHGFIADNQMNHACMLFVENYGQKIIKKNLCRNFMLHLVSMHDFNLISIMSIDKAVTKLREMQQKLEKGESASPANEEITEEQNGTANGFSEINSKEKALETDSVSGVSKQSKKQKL
T1 sequence (Q09028 whole entry partner, looked up): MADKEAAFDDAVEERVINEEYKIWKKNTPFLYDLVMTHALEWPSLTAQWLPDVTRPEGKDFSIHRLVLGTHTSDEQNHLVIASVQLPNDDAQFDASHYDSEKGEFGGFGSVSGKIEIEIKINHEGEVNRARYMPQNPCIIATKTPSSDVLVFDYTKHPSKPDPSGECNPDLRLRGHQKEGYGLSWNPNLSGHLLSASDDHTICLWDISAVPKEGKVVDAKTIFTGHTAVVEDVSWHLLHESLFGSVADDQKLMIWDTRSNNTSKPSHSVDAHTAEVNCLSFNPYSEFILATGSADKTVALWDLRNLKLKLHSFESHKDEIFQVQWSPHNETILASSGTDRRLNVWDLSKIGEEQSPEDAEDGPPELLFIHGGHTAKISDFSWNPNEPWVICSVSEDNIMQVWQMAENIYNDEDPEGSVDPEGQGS
Sequence of EZH2 Mutant Y641N (Q15910 whole entry Y641N, looked up): as the sequence (Q15910 whole entry, looked up) above, with Y641N counted along it
Sequence of EZH2 Mutant Y641N (O75530 whole entry partner, looked up): as the sequence (O75530 whole entry partner, looked up) above
Sequence of EZH2 Mutant Y641N (Q15022 whole entry partner, looked up): as the sequence (Q15022 whole entry partner, looked up) above
Sequence of EZH2 Mutant Y641N (Q09028 whole entry partner, looked up): as the sequence (Q09028 whole entry partner, looked up) above

Row | Compound | Ki ([1]; WT EZH2 Nucleosome assay (10X SAM) Ki (μM)) [µM] | IC50 ([2]; EZH2 Mutant Y641N Nucleosome assay IC50 (μM)) [µM] | IC50 ([3]; WT EZH2 Nucleosome assay IC50 (μM)) [µM] | IC50 [2, 4] [µM] | IC50 [3, 5] [µM] | Ki [1, 6] [µM]
1 | COC(c1cc(Cl)c2c(c1Cl)C(=O)N(Cc1c(C)cc(C)[nH]c1=O)CC2)C1CCN(C(=O)CO)CC1 (single isomer, unassigned) [Example 36, 5,8-dichloro-2-[(4,6-dimethyl-2-oxo-1,2-dihydropyridin-3-yl)methyl]-7-{[1-(hydroxyacetyl)piperidin-4-yl](methoxy)methyl}-3,4-dihydroisoquinolin-1(2H)-one] | 0.136 | 0.443 | 0.105 |  |  | 
2 | Cc1cc(C)c(CN2CCc3c(Cl)cc([C@H](CO)[C@H]4CCOC4)c(Cl)c3C2=O)c(=O)[nH]1 [Example 1, 5,8-dichloro-2-[(4,6-dimethyl-2-oxo-1,2-dihydropyridin-3-yl)methyl]-7-{(1R)-2-hydroxy-1-[(3R)-tetrahydrofuran-3-yl]ethyl}-3,4-dihydroisoquinolin-1(2H)-one] |  |  |  | 0.003 | 0.001 | 
3 | Cc1cc(C)c(CN2CCc3c(Cl)cc(C(C)C)c(Cl)c3C2=O)c(=O)[nH]1 [Example 14, 5,8-dichloro-2-[(4,6-dimethyl-2-oxo-1,2-dihydropyridin-3-yl)methyl]-7-(propan-2-yl)-3,4-dihydroisoquinolin-1(2H)-one] |  |  |  | 0.04 | 0.008 | 
4 | Cc1cc(C)c(CN2CCc3c(Cl)cc([C@H](C)CO)c(Cl)c3C2=O)c(=O)[nH]1 [Example 18] |  |  |  | 0.995 | 0.126 | 0.115
5 | Cc1cc(C)c(CN2CCc3c(Cl)cc([C@@H](C)CO)c(Cl)c3C2=O)c(=O)[nH]1 [Example 19] |  |  |  | 0.132 | 0.013 | 0.01
6 | Cc1cc(C)c(CN2CCc3c(Cl)cc(CC(=O)O)c(Cl)c3C2=O)c(=O)[nH]1 [Example 22] |  |  |  | 95.2 | 7.82 | 
7 | Cc1cc(C)c(CN2CCc3c(Cl)cc(CC4CCN(C(=O)CO)CC4)c(Cl)c3C2=O)c(=O)[nH]1 [Example 23] |  |  |  | 0.067 | 0.009 | 
